The results in this text go back to US20230123585A1, “COMPOSITIONS AND METHODS FOR TREATING OR PREVENTING CANCER USING DEUBIQUITINASE INHIBITORS” (The University of Chicago, priority 2020, published 2023).

What all share (assay type): cell-based
Assay [1] concerns polyA RNA m^6A in JQ1-insensitive cells (8902 cell line). The assay can be described thus: polyA RNA m^6A level upon JQ1 treatment in JQ1-insensitive PDAC cells. The text has this: (§1) FIGS. 15A-15D: The results of the inhibition rates of JQ1 in different PDAC cell lines. (B) The correlation analysis of gene expression of BRD family genes and METTL3 in PDAC from TGCA and GTEx database. (C) The polyA RNA m6A level changes upon JQ1 treatment compared to the DMSO control in different PDAC cell lines. (D) The cell viability changes with JQ1 treatment with a series concentrations in the JQ1-insensitive cells upon the knockdown of METTL3 and the JQ1-sensitive cells upon the overexpression of METTL3 compared to control. […]
(§2) LC-MS/MS quantification of m^6A in poly(A) RNA. mRNA was extracted from the total RNA using 2 rounds of the Dynabeads mRNA purification kit. […] The nucleosides were quantified by using the nucleoside-to-base ion mass transitions of 282 to 150 (m^6A) and 268 to 136 (A). Quantification was carried out by comparison with a standard curve obtained from pure nucleoside. The ratio of m^6A to A was calculated based on the calibrated concentrations (Liu et al., 2018).

Another assay relates to PDAC cell lines. In words: Inhibition rates of JQ1 in a panel of 9 PDAC cell lines. From the text: (§3) FIGS. 15A-15D: The results of the inhibition rates of JQ1 in different PDAC cell lines. (B) The correlation analysis of gene expression of BRD family genes and METTL3 in PDAC from TGCA and GTEx database. (C) The polyA RNA m6A level changes upon JQ1 treatment compared to the DMSO control in different PDAC cell lines. (D) The cell viability changes with JQ1 treatment with a series concentrations in the JQ1-insensitive cells upon the knockdown of METTL3 and the JQ1-sensitive cells upon the overexpression of METTL3 compared to control.

For a further assay, the system named is JQ1-sensitive PDAC cells. The assay can be described thus: Cell viability with JQ1 in JQ1-sensitive cells upon overexpression of METTL3. As to conditions: series of JQ1 concentrations.
Description: as §3

Assay [2] concerns JQ1-insensitive PDAC cells. The assay can be described thus: Cell viability with JQ1 in JQ1-insensitive cells upon knockdown of METTL3. The following applies: series of JQ1 concentrations.
Description: as §3

A further assay concerns METTL3 in 8902 cell line. In words: METTL3 RNA and protein level changes with JQ1 treatment in JQ1-insensitive cells. As to conditions: 8902 cell line (JQ1-insensitive). From the text:
(§4) FIGS. 16A-16B: (A) The protein level changes of METTL3 with JQ1 treatment in the JQ1-insensitive cells compared to DMSO control (left); the RNA level changes of METTL3 the JQ1-insensitive cells with JQ1 treatment compared to DMSO control (mid); the polyA RNA m6A level changes in JQ1-insensitive cells among the knockdown control and DMSO control samples, the knockdown control and JQ1 treatment samples, the METTL3 knockdown and DMSO control, and the METTL3 knockdown and JQ1 treatment samples (right). (B) The protein level changes of METTL3 with JQ1 treatment in the JQ1-sensitive cells compared to DMSO control (left); the RNA level changes of METTL3 the JQ1-sensitive cells with JQ1 treatment compared to DMSO control (mid); the polyA RNA m6A level changes in JQ1-sensitive cells among the knockdown control and DMSO control samples, the knockdown control and JQ1 treatment samples, the METTL3 knockdown and DMSO control, and the METTL3 knockdown and JQ1 treatment samples (right).

A further assay relates to METTL3 in Mia cell. In words: METTL3 RNA and protein level changes with JQ1 treatment in JQ1-sensitive cells. The following applies: dose-dependent.
Description: as §4

Assay [3] concerns polyA RNA m^6A in JQ1-sensitive cells (Mia cell). In words: polyA RNA m^6A level upon JQ1 treatment in JQ1-sensitive PDAC cells.
Description: as §1, §2

In the case of `Cc1sc2c(c1C)C(c1ccc(Cl)cc1)=N[C@@H](CC(=O)OC(C)(C)C)c1nnc(C)n1-2` [JQ1], the “polyA RNA m^6A, JQ1 treatment after METTL3 knockdown” value in assay [1] (8902 cell line (JQ1-insensitive)) is on record as “further reduced”. The “polyA RNA m^6A changes” value in assay [1] (JQ1-insensitive PDAC cells, versus DMSO control) is on record as “moderate to negligible”. For the same compound, the “inhibition effect (anticancer activity)” value with PDAC cell lines was “varies among different cell types”. In addition, the “effect of JQ1 treatment upon overexpression of METTL3 in JQ1-sensitive cell” value in the assay with JQ1-sensitive PDAC cells was “inhibits”. Moreover, the “viability of JQ1-insensitive cells, knockdown of METTL3 together with JQ1 treatment” value in assay [2] was “synergistically reduce”. In addition, in the assay with METTL3 in 8902 cell line, the “METTL3 RNA level” value is reported as “moderate effect” and the METTL3 protein level result is listed as “less of an effect”. Moreover, in the assay on METTL3 in Mia cell, the “METTL3 RNA level” value is listed as “dramatic decreases” and the METTL3 protein level entry was “dramatic decreases”. In assay [3] (JQ1-sensitive PDAC cells, versus DMSO control), the “polyA RNA m^6A” value is “dramatically decreased”. Moreover, the “polyA RNA m^6A level” value in assay [3] (Mia cell (JQ1-sensitive), dose-dependent) is given as “dramatic decreases”.
